Drawing on ChEMBL document CHEMBL1158934, “Anthelmintic polyfunctional nitrogen-containing terpenoids from marine sponges” (J Nat Prod, 1991), this text covers Activity for seven molecules.

Calls of active or inactive are those of the source. No cut-off for these calls is given here.

Type in all cases: functional, organism-based
Assay [1] has as its system Nippostrongylus brasiliensis. Put plainly: Antimicrobial activity against Nippostrongylus brasiliensis.
The subject of another assay is Candida albicans. The assay can be described thus: Antimicrobial activity against Candida albicans.
In assay [2] the test system is Trichophyton mentagrophytes. Put plainly: Antimicrobial activity against Trichophyton mentagrophytes.
The next assay relates to Staphylococcus aureus. The assay can be described thus: Antimicrobial activity against Staphylococcus aureus.

`[C-]#[N+][C@@H]1[C@H]2[C@H](CC[C@@]1(C)O)C(=C)CC[C@@H]2[C@@]1(C)CC[C@H](Cl)C(C)(C)O1`: in assay [1], the outcome was inactive.

With `[C-]#[N+][C@@H]1[C@H](C(C)C)CC[C@@H](C)[C@@]12C=C(C)CC2`, in assay [1], the outcome was inactive. Moreover, the outcome (in the assay on Candida albicans; in assay [2]; with Staphylococcus aureus) was Active.

In the case of `CC1=CC2=C(C(C)C)CC[C@](C)(N=C=S)[C@@H]2CC1`, the result in assay [1] was inactive.

On to `CC1=CC[C@@H](C(C)C)[C@H]2C[C@@](C)(N=C=S)CC[C@@H]12` (relative stereo), for which the result in assay [1] was inactive.

Take `[C-]#[N+][C@@H]1[C@H]2[C@H](CC[C@@]1(C)O)[C@](C)(N=C=S)CC[C@@H]2[C@@]1(C)CC[C@H](Cl)C(C)(C)O1`: the result (in assay [1]; in the assay with Candida albicans; in assay [2]; in the assay on Staphylococcus aureus) was Active.

With `CC1=C[C@H]2[C@@H](CC1)[C@@](C)(N=S)CC[C@H]2C(C)C`, in assay [1], the outcome was inactive.

Consider `CC1(C)O[C@@](C)([C@H]2CC[C@@](C)(N=C=S)[C@H]3CC[C@@](C)(O)[C@H](NC=O)[C@@H]32)CC[C@@H]1Cl`, for which the outcome in assay [1] was inactive.
